Measurements taken from patent US20250144050A1, “AMINOTHIOL-CONJUGATES, COMPOSITIONS, AND METHODS OF USE THEREOF” (THE BURLINGTON HC RESEARCH GROUP, INC., priority 2021, published 2025).
Read-outs that look alike come from different tables or passages of the source.

Legend:
[1] = system: Vero cells; test: Dose-response metrics in immortalized, non-tumorigenic cells; type: cell-based
Experimental: To determine potential cytostatic or cytocidal effects of BRG prodrugs in immortalized, non-tumorigenic cells, Vero, HEK-293t, LP9, and HPM3 cells were exposed to 4SP65 while only Vero cells also were treated with 1LP65. […] Comparisons across other dose-response metrics could not be made because such levels of effects were not induced in NHMECs exposed to 4SP65. […] Since cytostatic and cytolytic effects at the TGI and LC50/99 levels were induced in Vero cells exposed to 1LP65 but not in NHMECs, there is a significant difference in the effects of 1LP65 in Vero cells compared to NHMECs, but p values based upon t-test evaluations cannot be defined due to lack of numerical data.

[2] = system: normal human mammary epithelial cells (NHMECs); test: Growth of NHMEC strains after 48-hour exposure; type: cell-based; settings: for average effect per unit dose (% growth÷exposure concentration) / average effect per unit dose: NHMECs; for growth relative to control cells: 48-hour; for cell growth as % of control cell values: highest drug level 500 μM
Text: Normal human mammary epithelial cell (NHMEC) strains used to assess potential cytotoxicity of 4SP65/1LP65 were established from reduction mammoplasty tissue from a healthy donor (#M99005 or ‘Strain-1’) (Keshava et al., “Induction of CYP1A1 and CYP1B1 and Formation of Carcinogen-DNA Adducts in Normal Human Mammary Epithelial Cells Treated with Benzo[a]pyrene,” Cancer Lett. 221 (2): 213-24 (2005), which is hereby incorporated by reference in its entirety) or purchased from ATCC (Manassas, VA, USA; batch #70043304 or ‘Strain-2’) or Cell Applications (San Diego, CA, USA; lot #1669 or ‘Strain-3’). Human cancer cell lines including HCC38 (Cat #CRL2314™), MDA-MB-231 (Cat #HTB-26™), A549/ATCC (Cat #CL-185™), National Cancer Institute (NCI)-H460 (Cat #HTB177™), NCI-H1437 (Cat #CRL-5872™), NCI-H1975 (Cat #CRL-5908™), DU145 (Cat #HTB-81™), LNCaP (Cat #CRL-1740™), PC3 (Cat #CRL-1435™), PANC1 (Cat #CRL-1469™), SKOV3 (Cat #HTB-75™), and HL60 (Cat #CCL-240™), which were free of mycoplasma, were purchased from ATCC. HMESO1 (CLS Cell Lines Service GmbH, Cat #BHC11100791), PPMMill, and TOV21G cells (ATTC Cat #CRL-11730), obtained from Dr. Brian Cunniff, were verified to be Mycoplasma negative using the LookOutR Mycoplasma PCR Detection Kit (Sigma-Aldrich, Cat #MP0035) and to match previously annotated DNA fingerprints by the Vermont Integrative Genomics Resource DNA Analysis Facility.
To assess the effects of 4SP65 on the growth of normal epithelium, experiments were performed using NHMEC strains from three donors (Keshava et al., “Induction of CYP1A1 and CYP1B1 and Formation of Carcinogen-DNA Adducts in Normal Human Mammary Epithelial Cells Treated with Benzo[a]pyrene,” Cancer Lett. 221 (2): 213-24 (2005), which is hereby incorporated by reference in its entirety). Strain-1 NHMECs were plated at 5,000 cells/well in 24-well dishes and allowed to reach 50% confluence before treatment with 0-300 μM 4SP65 for 48 hours. Cell viability was determined using a hemocytometer and trypan blue exclusion assay. Two other NHMEC strains, exposed to 0-150 μM 4SP65 or 0-500 μM 1LP65, were handled in the same fashion except that viability of cells in 96-well plates was determined using CyQUANT dye.

[3] = Solubility testing; type: physicochemical
Experimental: The solubility of 4SP65 was tested in de-ionized water, PBS, DMSO, and RPMI or DMEM base medium with and without FBS. […] The difference in the starting weight of drug placed into solvent minus the weight of the residue after drying on a vacuum pump was considered to represent the amount of drug that went into solution. The amount of drug that was dissolved at a given time ranged from 40 to 61%, averaging 49.7±8.1% (SD). The weight of the 4SP65 in solution was then used for diluting the drug to concentrations of 200 or 400 μM in supplemented RPMI or DMEM/F12 medium for routine treatment of cells. The dried residue was not used in the in vitro drug efficacy studies. […] However, unintended topical entanglements between polymer chains of multi-arm PEG-thiol molecules without disulfide formation have been reported (Tang and Olsen, “Controlling Topological Entanglement in Engineered Protein Hydrogels with a Variety of Thiol Coupling Chemistries,” Front. Chem. 2:23 (2014), which is hereby incorporated by reference in its entirety). Aliquots of 4SP65 dissolved in FBS enriched medium has remained stable for >6 months while remnants of the original viscous polymer have maintained stability without any apparent loss of activity when stored for 60 months at −20° C.
The boc deprotected aminothiol conjugated to m-PEG6-thiol was dried on a vacuum pump overnight to yield a viscous oil that on analysis gave rise to spectra corresponding to 1LP65 as a di-trifluroacetic acid salt at a MW of 672.87 Da (FIG. 15), or a MW of 483 once dissolved in solution. As such, 1LP65 is soluble 100% DMSO or aqueous solution. However, the bulk of the product was dissolved at 40 mM in DMSO and stored in aliquots at −80° C. for future use once by further dilution in DMSO and then final dilution in medium for treatment of normal human epithelium and human cancer cell lines at working solutions of 4 mM or 400 μM drug. 1LP65 has maintained stability for six months in frozen aliquots but should be stable in DMSO at −80° C. for two to three years based upon recommended storage conditions for cystamine dihydrochloride (Selleck Chemical product information), an analogous 225 Da compound with a disulfide bond and amine groups like 1LP65.

4-star PEG-S-S-WR1065 [4SP65]
CC50 [1]: 11.6 ± 6.3 µM | GI50 ([1]; VERO): 2.9 ± 1.4 µM | LC99 ([1]; VERO): 14.0 ± 9.9 µM | TGI ([1]; VERO): 6.4 ± 2.6 µM | average effect per unit dose (% growth÷exposure concentration) ([2]; 9 μM): 8.7 | average effect per unit dose (% growth÷exposure concentration) ([2]; 30 μM): 1.70 | average effect per unit dose (% growth÷exposure concentration) ([2]; 90 μM): 0.23 | average effect per unit dose (% growth÷exposure concentration) ([2]; 150 μM): 0.058 | growth compared to sham-exposed control cells ([2]; Strain-1, 5 μM, 48 hours): 336% | growth compared to sham-exposed control cells ([2]; Strain-1, 15 μM, 48 hours): 286% | growth as % of control cell growth ([2]; Strain-1, 50 μM, 48 hours): 68% | growth pattern ([2]; Strain-1, 150 μM, 48 hours): re-established a predominant pattern of growth enhancement | IC50 ([2]; Strain-1 and Strain-2 NHMECs): could not be calculated or predicted | GI50 ([2]; Strain-1 and Strain-2 of NHMECs): could not be calculated or predicted | growth relative to control cells ([2]; Strain-2 and Strain-3, 3 μM): 162%±7% | growth relative to control cells ([2]; Strain-2 and Strain-3, 9 μM): 78%±12% | growth relative to control cells ([2]; Strain-2 and Strain-3, 30 μM): 52%±8% | growth relative to control cells ([2]; Strain-2 and Strain-3, 50 μM (so in the source)): 21%±4% | growth relative to control cells ([2]; Strain-2 and Strain-3, 150 μM): 8.7%±2% | IC50 ([2]; Strain-3 cells, 48 hours, read-out: IC50): 76 ± 14 µM | GI50 ([2]; strain 3 of NHMECs, read-out: GI50): 41.4 ± 6.2 µM | highest level that could be tested based upon maximum solubility in aqueous medium ([3]; aqueous medium): 150 µM | amount of drug that was dissolved, averaging (SD) ([3]; aqueous solvents/medium): 49.7±8.1% | solubility ([3]; de-ionized water, PBS, DMSO, RPMI or DMEM base medium with and without FBS): partially soluble in all media evaluated except DMSO | concentration above which a hydrogel forms ([3]; in medium): above 300 micromolar

COCCOCCOCCOCCOCCOCCSSCCNCCCN [1LP65, m-PEG6-S-S-WR1065]
GI50 ([1]; Chlorocebus sabaeus, Vero): 46.6 ± 2.6 µM | LC99 ([1]; VERO): 183.4 ± 6.2 µM | TGI ([1]; VERO): 82.8 ± 2.9 µM | cytotoxicity in NHMECs ([2]; 500 μM): not cytotoxic | IC50 ([2]; Homo sapiens, Epithelial cell, 48 h, Strain-2 cells, 48 hours, read-out: IC50): > 500 µM | IC50 ([2]; Homo sapiens, Epithelial cell, 48 h, Strain-3 cells, 48 hours, read-out: IC50): 210 µM | IC50 ([2]; Homo sapiens, Epithelial cell, Strain-2 and Strain-3, read-out: IC50, averaging over strains): > 355 µM | average effect per unit dose (% growth÷exposure concentration) ([2]; 90 μM): 2.9 | average effect per unit dose (% growth÷exposure concentration) ([2]; 150 μM): 0.31 | average effect per unit dose ([2]; 300 μM): 0.06 | average effect per unit dose ([2]; 500 μM): 0.03 | cell growth as % of control cell values ([2]; Strain-2, 48 hours): 19.5% | cell growth as % of control cell values ([2]; Strain-3, 48 hours): 12.5% | solubility ([3]; 100% DMSO or aqueous solution): soluble
